Experimental data reported in patent US4443434A, “Antiulcer agent” (American Home Products Corporation, priority 1982, dated 1984).

What was measured:
gastric acid secretion [1] = settings: on a molar basis; cited from earlier work
gastric blood flow = gastric blood flow by 86Rb distribution in rats; assay type: in vivo, rat; settings: 1 mg/kg/hr i.v. infusion, 86RbCl at 30 min, mean ± S.E.M., 5 animals per group; saline 1.20 ± 0.05
Experimental: The effect of the octapeptide on gastric blood flow was established by the following procedure:
Rats weighing 280-350 gms were used. Rats were anesthatized with 50 mg/kg Nembutal and their left jugular veins cannulated. Somatostatin, 1 mg/kg/hr, was infused i.v. in one group of rats while a second group received a saline infusion. In a second experiment the octapeptide of the method of this invention, 1 mg/kg, or saline was injected s.c. Thirty minutes following the start of the experiment 20 μCi/rat of ^86 RbCl was injected i.v. The rats were killed 20 seconds later by injection of 0.5 ml Nembutal. The blood flow to the stomach was determined by counting ^86 Rb in the disected stomachs of the rats.

gastric acid secretion [2] = settings: dose as high as 2 μm/kg, s.c.; cited from earlier work

## CSCCC(NC(=O)C(Cc1c[nH]c2ccccc12)NC(=O)CNC(=O)C(Cc1ccc(O)cc1)NC(=O)C(C)NC(=O)C(CCC(=O)O)NC(=O)C(CCC(=O)O)NC(=O)C(CCC(=O)O)NC(=O)[C@H](CCC(=O)O)NC(=O)[C@H](CCC(=O)O)NC(=O)[C@H](CC(C)C)NC(=O)[C@H](Cc1c[nH]c2ccccc12)NC(=O)[C@@H]1CCCN1C(=O)CNC(=O)[C@@H](N)CCC(=O)O)C(=O)NC(CC(=O)O)C(=O)NC(Cc1ccccc1)C(N)=O (stereo in doubt) [gastrin]
Gastric acid secretion [1]
  potency as stimulant of gastric acid secretion relative to histamine: 1,500 times

## C[C@H](N)C(=O)NCC(=O)N[C@H]1CSSC[C@@H](C(=O)O)NC(=O)[C@H](CO)NC(=O)[C@H]([C@@H](C)O)NC(=O)[C@H](Cc2ccccc2)NC(=O)[C@H]([C@@H](C)O)NC(=O)[C@H](CCCCN)NC(=O)[C@H](Cc2c[nH]c3ccccc23)NC(=O)[C@H](Cc2ccccc2)NC(=O)[C@H](Cc2ccccc2)NC(=O)[C@H](CC(N)=O)NC(=O)[C@H](CCCCN)NC1=O [somatostain, somatostatin]
Gastric blood flow
  % total 86Rb in stomach: 1.03 ± 0.05%

## D-Lys^6 -SRIF
Gastric acid secretion [2]
  effect on gastric acid secretion: no appreciable effect
